From patent publication US20110295343A1, “NEAR-INFRARED ELECTROMAGNETIC MODIFICATION OF CELLULAR STEADY-STATE MEMBRANE POTENTIALS” (priority 2008, published 2011)
Where “and” joins values, the source holds several entries; their conditions need not be identical. Equal values may be shown once.

Test system: MRSA (ATCC BAA-43)
Assay: MRSA/antimicrobial potentiation, CFU on TSB agar with and without antibiotic after laser (Example XXII, Experiments 1-4)
Assay type: cell-based, Staphylococcus aureus subsp. aureus
Conditions: for CFU/ml / AVG / CFU: agar with 30 μg/ml methicillin; for AVG: mean of plates; for CFU: replicate plates; for Meth Effect: CFU with methicillin / without; for Laser Effect (+Meth) / Laser Effect (+M): both on 30 μg/ml methicillin
Method: Four separate experiments have been performed.
Eight different laser dosages were used to treat a saline-suspension of logarithmically growing MRSA, labeled A1 to H1.
The treated and a control untreated suspension were diluted and plated in triplicate on trypic soy agar with or without 30 μg/ml methicillin After 24 hrs of growth at 37° C. colonies were counted.
CFU (colony forming units) were compared between the plates with and without methicillin for both control (untreated) and treated MRSA.
The treated and a control untreated suspension were diluted and plated in triplicate on trypic soy agar with or without 30 μg/mlmethicillin.
After 24 hrs of growth at 37° C. colonies were counted.
The treated and a control untreated suspension were diluted and plated in pentuplicate on trypic soy agar with or without 30 μg/ml methicillin.

## COc1cccc(OC)c1C(=O)N[C@@H]1C(=O)N2[C@@H]1SC(C)(C)[C@@H]2C(=O)O [Methicillin]
Exp#2 C2 Cont (no laser)
  CFU/ml: 1.66E+08 CFU/ml
  AVG: 55.3 CFU
  CFU: 42 CFU and 71 CFU and 53 CFU
Exp#2 C2 Exp (laser treated)
  Meth Effect: 0.31
  CFU/ml: 3.80E+07 CFU/ml
  AVG: 12.7 CFU
  CFU: 16 CFU and 12 CFU and 10 CFU
Exp#2 D2, laser Exp / Cont
  Laser Effect (+Meth): 0.04
Exp#2 D2 Cont (no laser)
  Meth Effect: 0.61
  CFU/ml: 1.56E+08 CFU/ml
  AVG: 52 CFU
  CFU: 20 CFU and 65 CFU and 71 CFU
Exp#2 D2 Exp (laser treated)
  Meth Effect: 0.25
  CFU/ml: 7.00E+06 CFU/ml
  AVG: 2.3 CFU
  CFU: 5 CFU and 1 CFU (2×)
Exp#2 E2, laser Exp / Cont
  Laser Effect (+Meth): 0.04
Exp#2 E2 Cont (no laser)
  Meth Effect: 1.04
  CFU/ml: 1.87E+08 CFU/ml
  AVG: 62.3 CFU
  CFU: 68 CFU and 66 CFU and 53 CFU
Exp#2 E2 Exp (laser treated)
  Meth Effect: 0.24
  CFU/ml: 8.00E+06 CFU/ml
  AVG: 2.7 CFU
  CFU: 2 CFU (2×) and 4 CFU
Exp#2 F2, laser Exp / Cont
  Laser Effect (+Meth): 0.22
Exp#2 F2 Cont (no laser)
  Meth Effect: 0.81
  CFU/ml: 2.13E+08 CFU/ml
  AVG: 71 CFU
  CFU: 62 CFU and 64 CFU and 87 CFU
Exp#2 F2 Exp (laser treated)
  Meth Effect: 0.38
  CFU/ml: 4.70E+07 CFU/ml
  AVG: 15.7 CFU
  CFU: 13 CFU and 15 CFU and 19 CFU
Exp#2 G2, laser Exp / Cont
  Laser Effect (+Meth): 0.1
Exp#2 G2 Cont (no laser)
  Meth Effect: 1.04
  CFU/ml: 2.50E+08 CFU/ml
  AVG: 83.3 CFU
  CFU: 75 CFU and 92 CFU and 83 CFU
Exp#2 G2 Exp (laser treated)
  Meth Effect: 0.3
  CFU/ml: 2.50E+07 CFU/ml
  AVG: 8.3 CFU
  CFU: 10 CFU and 7 CFU and 8 CFU
Exp#2 H2, laser Exp / Cont
  Laser Effect (+Meth): 0.17
Exp#2 H2 Cont (no laser)
  Meth Effect: 0.73
  CFU/ml: 2.30E+08 CFU/ml
  AVG: 76.7 CFU
  CFU: 76 CFU and 72 CFU and 82 CFU
Exp#2 H2 Exp (laser treated)
  Meth Effect: 0.45
  CFU/ml: 3.80E+07 CFU/ml
  AVG: 12.7 CFU
  CFU: 13 CFU (2×) and 12 CFU
Exp#3 A3, laser Exp / Cont
  Laser Effect (+M): 0.33
Exp#3 A3 Cont (no laser)
  Meth Effect: 1.03
  CFU/ml: 1.45E+08 CFU/ml
  AVG: 48.4 CFU
Exp#3 A3 Exp (laser treated)
  Meth Effect: 0.52
  CFU/ml: 4.86E+07 CFU/ml
  AVG: 16.2 CFU
Exp#3 B3, laser Exp / Cont
  Laser Effect (+M): 0.27
Exp#3 B3 Cont (no laser)
  Meth Effect: 0.99
  CFU/ml: 2.14E+08 CFU/ml
  AVG: 71.4 CFU
Exp#3 B3 Exp (laser treated)
  Meth Effect: 0.61
  CFU/ml: 5.70E+07 CFU/ml
  AVG: 19 CFU
Exp#3 C3, laser Exp / Cont
  Laser Effect (+M): 0.35
Exp#3 C3 Cont (no laser)
  Meth Effect: 1.01
  CFU/ml: 1.75E+08 CFU/ml
  AVG: 58.4 CFU
Exp#3 C3 Exp (laser treated)
  Meth Effect: 0.53
  CFU/ml: 6.06E+07 CFU/ml
  AVG: 20.2 CFU
Exp#3 D3, laser Exp / Cont
  Laser Effect (+M): 0.07
Exp#3 D3 Cont (no laser)
  Meth Effect: 1.01
  CFU/ml: 1.54E+08 CFU/ml
  AVG: 51.2 CFU
Exp#3 D3 Exp (laser treated)
  Meth Effect: 0.39
  CFU/ml: 1.08E+07 CFU/ml
  AVG: 3.6 CFU
Exp#3 E3, laser Exp / Cont
  Laser Effect (+M): 0.47
Exp#3 E3 Cont (no laser)
  Meth Effect: 0.92
  CFU/ml: 1.52E+08 CFU/ml
  AVG: 50.6 CFU
Exp#3 E3 Exp (laser treated)
  Meth Effect: 0.44
  CFU/ml: 7.08E+07 CFU/ml
  AVG: 23.6 CFU
  CFU: 15 CFU and 24 CFU and 26 CFU and 27 CFU
Exp#3 F3, laser Exp / Cont
  Laser Effect (+M): 0.18
Exp#3 F3 Cont (no laser)
  Meth Effect: 0.73
  CFU/ml: 1.60E+08 CFU/ml
  AVG: 53.2 CFU
Exp#3 F3 Exp (laser treated)
  Meth Effect: 0.35
  CFU/ml: 2.94E+07 CFU/ml
  AVG: 9.8 CFU
Exp#3 G3, laser Exp / Cont
  Laser Effect (+M): 0.12
Exp#3 G3 Cont (no laser)
  Meth Effect: 1.17
  CFU/ml: 2.03E+08 CFU/ml
  AVG: 67.6 CFU
Exp#3 G3 Exp (laser treated)
  Meth Effect: 0.37
  CFU/ml: 2.52E+07 CFU/ml
  AVG: 8.4 CFU
Exp#3 H3, laser Exp / Cont
  Laser Effect (+M): 0.11
Exp#3 H3 Cont (no laser)
  Meth Effect: 1.04
  CFU/ml: 2.26E+08 CFU/ml
  AVG: 75.2 CFU
Exp#3 H3 Exp (laser treated)
  Meth Effect: 0.35
  CFU/ml: 2.52E+07 CFU/ml
  AVG: 8.4 CFU
FIG. 17
  synergistic effect of NIMELS with antibiotic in growth inhibition of MRSA colonies: being potentiated by sub-lethal NIMELS dosimetry
